Data published in patent US20030045508A1, “(1r,cis)-4-(4-amino-7h-pyrrolo'2,3-i(d) pyrimidine-7-yl)-2-cyclopentene-1-methanol derivatives as antiviral” (priority 2002, published 2003).

Assays:
[1] = Acid stability (acid-mediated hydrolytic decomposition, simulated stomach conditions); format: physicochemical; settings: 0.1 N hydrochloric acid at 25° C.
Protocol: The compound of Example 3 was tested for stability towards acid-mediated hydrolytic decomposition employing a test designed to simulate stomach conditions. The compound was incubated at an initial concentration of 0.27 mg/mL in dilute hydrochloric acid at pH 1 for 72 hours at 37° C. HPLC was run immediately for t=0 and at intervals up to approximately 72 hours.
In contrast, the phosphoramidate of 2′,3′-dideoxy-adenosine (Compound 1093, PCT/GB9600580) had entirely decomposed by t=13 hours and 2′,3′-didehydro-2′,3′-dideoxy-adenosine (Compound 1001, PCT/GB96/00580) had entirely decomposed at t=0 in 0.1 N hydrochloric acid at 25° C.

| Structure (SMILES) | time t at which entirely decomposed [1] [h] | melting point [°C] |
| --- | --- | --- |
| Nc1ncnc2c1ncn2[C@H]1C=C[C@@H](CO)O1 [Compound 1001, 2′,3′-didehydro-2′,3′-dideoxy-adenosine] | 0 |  |
| Nc1ncnc2c1ccn2[C@@H]1C=C[C@H](CO)C1 [Example 1, (+)-(1R, cis)-4-[4-Amino-7H-pyrrolo(2,3-d)pyrimidin-7-yl]-2-cyclopentene-1-methanol] |  | 165 to 168 |
